This note sets out measurements from patent publication EP0773287A1, “Immortalised embryonic hyppocampal cells and their use” (BAYER AG, priority 1995, dated 1997).

Common to all, as to format: cell-based, murine
Test [1] relates to HNMMCV13.1.E. The experiment in a line: Whole-cell patch-clamp recording of ligand-activated currents. The settings on record: 13.1.E; membrane potential clamped to -70mV. Here is the method:
(§1) Electrophysiological setup: Membrane currents were measured with the patchclamp technique in the whole-cell recording configuration (Hamill et al. 1981, Pfluegers Arch. 391:85-100). Current signals were amplified with conventional electronics (EPC-9 amplifier, HEKA Elektronik GmbH, Lambrecht, Germany), filtered at 10kHz, and sampled at 5 kHz by an interface connected to an IBM AT-compatible computer system, which also served as a stimulus generator.
(§2) Solutions and electrodes: The standard bathing solution contained (in mM): Nacl 150, KCL 5, MgCl2 1.8, HEPES 5, and glucose 10. In some experiments an equimolar amount of NaCl was replaced by 5mM BaCl2. Recording pipettes had resistances about 5MΩ (Hilgenberg, Malsfeld, Germany). The pipettes contained (in mM): KCL 140, CaCl2 0.5, EGTA 5, MgCl2 2, and HEPES 10. The pH was adjusted to 7.4. In some experiments the pipette solution was designed to minimize the contribution of voltage-activated currents. In this case, investigating the ligand-activated currents, the pipette solution contained (in mM): CsCl 140, EGTA 10, and HEPES 10.
(§3) Ligands were dissolved in the extracellular saline solution and applied via an U-tube application system. To record ligand-induced currents, the membrane potential was clamped to -70mV. For measurements of voltage-activated currents, cells were held at -70mV and every second the membrane was stepped through a 50 msec. de- or hyperpolarising test pulse to a potential between -170 and +20 mV.
For orientation: In patch-clamp work, channel activity is measured electrically.

The subject of the next test is HC e/n XVB cells. Described as above. The settings on record: for ligand-activated currents (electrophysiological recordings): membrane potential clamped to -70mV. Here is the method: as §1, §2, §3
For test [2], the system named is metabotropic glutamate receptor(s) (mGluR) expressed by HNMMCV14.1A cells. Description: Phosphoinositide hydrolysis: accumulation of 3H-inositol phosphates. The settings on record: HNMMCV14.1A cells; agonist 1 h, LiCl 10 mM; read-out: EC50 inositolphosphate accumulation. As for the experimental part:
Phosphoinositide hydrolysis was determined by measuring the accumulation of ^3H-inositol phosphates. The cells were plated in 48-well plates (Costar) at a density of 10000 cells per well and incubated for 4-5 days at 37°C, 7% CO2. Then the cells were labeled by incubation with 4 µCi of myo-2-^3H-inositol per ml medium (specific activity: […]: Amersham). After 24 h LiCl (10 mM final concentration) was added to the cells for 1 h. Agonists were then added at the concentrations indicated. The incubation was stopped after 1 h by replacing the medium with 200 µl ice-cold methanol. 400 µl of destilled water was added and the sample was directly applied to AG-1X8 ion exchange columns (AG-1X8 resin: BioRad). Free inositol and glycerophosphoryl-inositol were washed away with 16 ml destilled water followed by 10 ml 5 mM disodium-tetraborate, 60 mM sodium formate. Total ^3H-inositol phosphates (IP1, IP2, IP3) were eluted with 7 ml of 100 mM formic acid, 1 M ammonium formate. Radioactivity of the eluted ^3H-inositol phosphates was determined by liquid scintillation counting after addition of 13 ml liquid scintillation cocktail (Ultima Gold: Canberra Packard). Measurements were performed in triplicates for each experimental point. Untreated controls were set as 100% and the other values calculated in relation to this.
The columns were prepared as follows: 1 ml pipet tips were filled with one glass bead (Roth) per tip before adding 500 µl AG-1X8 resin. The resin was compressed with air and 270 µl seasand was applied. Until use they were stored at 4°C.

Test [3] concerns HNMMCV14.1.A. The experiment in a line: Whole-cell patch-clamp recording of ligand-activated currents. As for the experimental part: as §1, §2, §3
The subject of another test is HC e/n XV.B cells. Description: Ca2+-imaging (Fura-2) of intracellular calcium after application of agonists. Here is the method:
(§4) Fluorescent Probe: Dynamic changes of intracellular calcium concentration were measured using the Fura-2 fluorescent probe (Roe et al. 1990, Cell Calcium 11:63-73). This fluorescent dye was chosen because of its selectivity, high quantum yield and extinction co-efficient. Fura-2 permeates the living cell as a acetoxymethylester and becomes trapped within the cell after hydrolysis by intracellular esterases. The calcium-sensitive free acid of Fura-2 is able to bind to calcium ions inside the cell. Fura-2 has an excitation maximum at 380 nm and the Fura2/calcium complex peaks at 340 nm. A change in intracellular calcium concentration was calculated by recording fluorescent video images at wavelengths of 340nm and 380nm excitation and 510nm emission and by dividing the grey values of the digitized video images of 380nm from 340nm.
(§5) Loading cells with Fura-2: A stock solution with 2mM Fura-2-acetoxymethylester in dimethylsulfoxide (DMSO) was diluted to 5-10 µM with serum free Minimal Essential Medium (MEM, Gibco) containing 1.5% bovine serum albumin and 5 mM calcium chloride. The cells were incubated in a Falcon 96 well plate for 45-60 minutes at 37°C. Subsequently the cells were washed twice in N-(2-Hydroxyethyl)piperazine-N'-(2-ethanesulfonic acid) (HEPES, 5mM) buffered Tyrode solution (HEPES buffered salt solution containing 130 mM NaCl, 5 mM KCl, 2 mM CaCl2, 1 mM MgCl2, 5mM NaHCO3, 11 mM Glucose).
(§6) Imaging procedure: 100 µl of Tyrode buffer was added to the plate wells and the cells were sequencially exposed to light at 340 nm and 380 nm under a fluorescent microscope (Nikon Diaphot). The exposition time was 100 ms. A series of video images at 3 second intervals was acquired and stored as digitised pictures in the image boards of an image analysis computer (Leica, Quantimet 570). After the acquisition of 8 images the test substances were applied. The grey levels of the cells, which correspond to the fluorescence intensity, were measured in the recorded video images. The ratio was determined by dividing the measured grey levels of the "380 nm images" by the grey levels of the "340 nm images" either from averaged images or from individual cells. For averaged results, the grey levels were measured over the whole images.
(§7) The cells were loaded with Fura 2/AM between day 3 and 7 in culture. A number of agonists were tested for their ability to activate specific receptors on the cell surface which lead to a rise in intracellular calcium. The rise in calcium concentration in the cytoplasm can occur after activation of specific calcium channels in the cell membrane, after activation of neurotransmitter receptors directly coupled to ion channels that are permeable to calcium ions (i.e. NMDA or AMPA type glutamate receptors), or by activation of receptors, which propagate the signal through the activation of specific G-proteins, which regulate the activity of different enzymes in the interior of the cell (Connor, Cell Calcium 14 (1993), 185-200; Crouch and Hendry, Medical Res. Rev. 13 (1993), 105-123). The activation of phospholipase C generates the second messengers diacylglycerol and inositoltriphosphate from phospholipids in the cell membrane. The binding of inositoltriphosphate to receptors localised on internal vesicles which store calcium ions leads to a transient rise in the concentration of calcium ions in the cytoplasm (Berridge, M.J. 1993, Nature 361: 315-325).
In general terms: A change in cytosolic calcium serves as a functional read-out for many receptors and channels.

The subject of test [4] is HNMMCV13.1.E. Described as above. Here is the method:
as §4, §5, §6, §7

In another test the test system is HNMMCV11.2.0. The test is described as above. As for the experimental part: as §4, §5, §6, §7
Another test relates to HNMMCV13.1.F. The test is described as above. As for the experimental part: as §4, §5, §6, §7
Test [5] has as its system HNMMCV14.1.A. Described as above. Here is the method: as §4, §5, §6, §7
Test [6] has as its system v-myc-expressing lines and clones. Description: Induction of differentiation of immortalised cell lines and clones. To be noted: 1mM. Here is the method: For experiments in the presence of growth factors or other differentiation inducing agents, the primary cell cultures or the immortalised cell lines were cultured in the presence of one or a combination of the following: β-FGF, 1ng/ml, (Collaborative Research), EGF; 5 ng/ml or 10 ng/ml, (Collaborative Research), NGF (10 ng/ml, Collaborative Reasearch), dibutyryl cyclic adenosine monophosphate (dbcAMP, 1mM, Sigma, Heidelberg), retinoic acid (5 µM; Sigma), IL-7 (50 U/ml), TGFα (5ng/ml).
To induce differentiation in vitro several combinations of the following factors were used: retinoic acid (RA, 10 µM), NGF, β-FGF, EGF, IL-7, TGFα, dbcAMP (1mM). In addition the effect of co-culture with cortical glial cells originating from postnatal day 0 to 1 and granule neurons originating from postnatal day 6 mice was investigated.

`N[C@@H](CCC(=O)O)C(=O)O` [Glutamate, L-glutamate]: the “ligand-activated currents (electrophysiological recordings)” value is “+ (+: 10-30% positive cells)” in the test with HNMMCV13.1.E [1], “++ (++: 30-70% positive cells)” with HC e/n XVB cells (XV. B/ - EGF) and “-” in the test with HC e/n XVB cells (XV. B). In test [2], the EC50 – broadly, the concentration needed to bring the measured effect to its halfway point – was found to be 50 µM.

As to `C=C(C)[C@H]1CN[C@H](C(=O)O)[C@H]1CC(=O)O` [Kainate, kainic acid], the “ligand-induced inward currents (result in words)” value in the test on HC e/n XVB cells is on record as “evoked responses”. The “ligand-activated currents (electrophysiological recordings)” value with HNMMCV14.1.A [3] is recorded as “+ / -”. For the same molecule, the “rise in intracellular calcium concentration (result in words)” value in the test on HC e/n XV.B cells is “reproducible calcium signal”; with HNMMCV13.1.E [4], “did not result in a transient rise”; in the test on HNMMCV11.2.0, “did not result in a transient rise”; in the test on HNMMCV13.1.F it was “did not result in a transient rise”; in the test with HNMMCV14.1.A [5], “did not result in a transient rise”. The “transient calcium currents after the application of agonists and antagonists (Calcium - Imaging)” value in the test with HNMMCV13.1.E [4], in the test on HNMMCV11.2.0, with HNMMCV13.1.F and in the test on HNMMCV14.1.A [5] was “-” throughout.

`CCCC(=O)Nc1ncnc2c1ncn2[C@@H]1O[C@@H]2COP(=O)(O)O[C@H]2[C@H]1OC(=O)CCC` [dbcAMP, dibutyryl cyclic adenosine monophosphate]: the “expression of MAP-2” value in test [6] (cell line HNMMCV11.2.) is “induction of the expression of MAP-2”. In addition, in [6] (v-myc-expressing lines and clones), the “differentiation of the cells (morphology, markers vimentin and nestin)” value is given as “partial differentiation”.
